The values below come from US12286435B2, “Compound having benzo seven-membered ring structure, preparation method therefor, and use thereof” (BIONNA (BEIJING) MEDICAL TECHNOLOGY CO., LTD., priority 2019, dated 2025).

For one experiment, the target named is BRD4 BD1 protein (Homo sapiens (Human), UniProt O60885). The experiment is described as follows: Fluorescence polarization binding affinity (Ki) with BRD4 BD1 protein. The settings on record: fluorescence polarization; Ki calculated from IC50.
The next experiment has as its target BRD4 BD2 protein (Homo sapiens (Human), UniProt O60885). The experiment can be described thus: Fluorescence polarization binding affinity (Ki) with BRD4 BD2 protein. The settings on record: fluorescence polarization; Ki calculated from IC50.

As for `Cc1nnn2c1-c1ccc(C3=CCN(C(C)C)CC3)cc1C(Nc1cc(Cl)ccc1F)CC2` (centres unmarked) [BI68, N-(5-chloro-2-fluorophenyl)-9-(1-isopropyl-1,2,3,6-tetrahydropyridin-4-yl)-1-methyl-6,7-dihydro-5H-benzo[c][1,2,3]triazolo[1,5-a]azepin-7-amine 2,2,2-trifluoroacetate], the Ki was 1110 nM on BRD4 BD1 protein and 45.1 nM at BRD4 BD2 protein.
`Cc1cc(NC2CCn3nnc(C)c3-c3ccc(C4=CCNCC4)cc32)n(C)n1` (centres unmarked) [BJ28, N-(1,3-dimethyl-1H-pyrazol-5-yl)-1-methyl-9-(1,2,3,6-tetrahydropyridin-4-yl)-6,7-dihydro-5H-benzo[c][1,2,3]triazolo[1,5-a]azepin-7-amine 2,2,2-trifluoroacetate]: the values for the Ki on BRD4 BD1 protein and at BRD4 BD2 protein were 1830 nM and 250 nM, respectively.
Taken in the same sequence, the figures for `Cc1nnn2c1-c1ccc(C3=CCNCC3)cc1C(Nc1ccc(F)cc1)CC2` (centres unmarked) [BJ122, N-(4-fluorophenyl)-1-methyl-9-(1,2,3,6-tetrahydropyridin-4-yl)-6,7-dihydro-5H-benzo[c][1,2,3]triazolo[1,5-a]azepin-7-amine 2,2,2-trifluoroacetate] were 757 nM and 68.6 nM.
Taken in the same sequence, the figures for `Cc1nnn2c1-c1ccc(C3=CCNC3)cc1C(Nc1cccc(Cl)c1)CC2` (centres unmarked) [BJ179, N-(3-chlorophenyl)-9-(2,5-dihydro-1H-pyrrol-3-yl)-1-methyl-6,7-dihydro-5H-benzo[c][1,2,3]triazolo[1,5-a]azepin-7-amine 2,2,2-trifluoroacetate] were 436 nM and 25.9 nM.
Taken in the same sequence, the figures for `Cc1nnn2c1-c1ccc(C3=CCNC3)cc1C(Nc1cccc(O)c1)CC2` (centres unmarked) [BJ183, 3-((9-(2,5-dihydro-1H-pyrrol-3-yl)-1-methyl-6,7-dihydro-5H-benzo[d][1,2,3]triazolo[1,5-a]azepin-7-yl)amino)phenol 2,2,2-trifluoroacetate] were 939 nM and 45 nM.
On to `Cc1nnn2c1-c1ccc(-c3cnn(C)c3)cc1C(Nc1cc(F)cc(Cl)c1)CC2` (centres unmarked) [BJ193, N-(3-chloro-5-fluorophenyl)-1-methyl-9-(1-methyl-1H-pyrazol-4-yl)-6,7-dihydro-5H-benzo[c][1,2,3]triazolo[1,5-a]azepin-7-amine], for which the Ki at BRD4 BD1 protein was 28.3 nM; at BRD4 BD2 protein, 8.4 nM.
For `COc1ccc2c(c1)C(Nc1ccc(Cl)cc1)CCc1onc(C)c1-2` (centres unmarked) [FA02, N-(4-chlorophenyl)-8-methoxy-1-methyl-5,6-dihydro-4H-benzo[6,7]cyclohepta[1,2-d]isoxazol-6-amine], the Ki at BRD4 BD1 protein is 58.3 nM; at BRD4 BD2 protein it was 37.1 nM.
The corresponding values for `CCn1cc(-c2ccc3c(c2)C(Nc2ccc(Cl)cc2)CCc2onc(C)c2-3)cn1` (centres unmarked) [LA93, N-(4-chlorophenyl)-1-methyl-8-(1-ethyl-1H-pyrazol-4-yl)-5,6-dihydro-4H-benzo[6,7]cyclohepta[1,2-d]isoxazol-6-amine] are 76.3 nM and 46.7 nM.
Regarding `COC(=O)c1ccccc1NC1CCn2nnc(C)c2-c2ccc(-c3cnn(C)c3)cc21` (centres unmarked) [LB160, methyl 2-((1-methyl-9-(1-methyl-1H-pyrazol-4-yl)-6,7-dihydro-5H-benzo[c][1,2,3]triazolo[1,5-a]azepin-7-yl)amino)benzoate], the results for the Ki on BRD4 BD1 protein and on BRD4 BD2 protein were 96.4 nM and 12.5 nM, respectively.
For `Cc1nnn2c1-c1ccc(C3=CCNCC3)cc1C(Nc1cccc(C#N)c1)CC2` (centres unmarked) [LC75, 3-((1-methyl-9-(1,2,3,6-tetrahydropyridin-4-yl)-6,7-dihydro-5H-benzo[c][1,2,3]triazolo[1,5-a]azepin-7-yl)amino)benzonitrile 2,2,2-trifluoroacetate], the Ki at BRD4 BD1 protein was 2290 nM; at BRD4 BD2 protein, 116 nM.
The corresponding values for `Cc1nnn2c1-c1ccc(C3=CCNCC3)cc1C(Nc1ccccc1Cl)CC2` (centres unmarked) [LC84, N-(2-chlorophenyl)-1-methyl-9-(1,2,3,6-tetrahydropyridin-4-yl)-6,7-dihydro-5H-benzo[c][1,2,3]triazolo[1,5-a]azepin-7-amine 2,2,2-trifluoroacetate] are 845 nM and 37.8 nM.
`Cc1nnn2c1-c1ccc(C3=CCNCC3)cc1C(Nc1cccc(CC(=O)O)c1)CC2` (centres unmarked) [LC87, 2-(3-((1-methyl-9-(1,2,3,6-tetrahydropyridin-4-yl)-6,7-dihydro-5H-benzo[c][1,2,3]triazolo[1,5-a]azepin-7-yl)amino)phenyl) acetic acid]: the Ki was above 20000 nM on BRD4 BD1 protein and 142 nM at BRD4 BD2 protein.
Taken in the same sequence, the figures for `Cc1nnn2c1-c1ccc(-c3cnn(C)c3)cc1C(Nc1ccccc1CCN(C)C)CC2` (centres unmarked) [LC99, N-(2-(2-(dimethylamino)ethyl)phenyl)-1-methyl-9-(1-methyl-1H-pyrazol-4-yl)-6,7-dihydro-5H-benzo[c][1,2,3]triazolo[1,5-a]azepin-7-amine] were 38.4 nM and 12.9 nM.
The corresponding values for `Cc1nnn2c1-c1ccc(-c3cnn(C)c3)cc1C(Nc1cccc(CCN(C)C)c1)CC2` (centres unmarked) [LC101, N-(3-(2-(dimethylamino)ethyl)phenyl)-1-methyl-9-(1-methyl-1H-pyrazol-4-yl)-6,7-dihydro-5H-benzo[c][1,2,3]triazolo[1,5-a]azepin-7-amine] are 89 nM and 13.6 nM.
Regarding `Cc1nnn2c1-c1ccc(C3=CCNCC3)cc1C(Nc1ccc(O)cc1)CC2` (centres unmarked) [LC117, 4-((1-methyl-9-(1,2,3,6-tetrahydropyridin-4-yl)-6,7-dihydro-5H-benzo[c][1,2,3]triazolo[1,5-a]azepin-7-yl)amino)phenol 2,2,2-trifluoroacetate], the Ki on BRD4 BD1 protein is 2370 nM; on BRD4 BD2 protein, 116 nM.
In the case of `Cc1nnn2c1-c1ccc(C3=CCNCC3)cc1C(Nc1ccccc1O)CC2` (centres unmarked) [LC127, 2-((1-methyl-9-(1,2,3,6-tetrahydropyridin-4-yl)-6,7-dihydro-5H-benzo[c][1,2,3]triazolo[1,5-a]azepin-7-yl)amino)phenol 2,2,2-trifluoroacetate], the Ki is 793 nM at BRD4 BD1 protein and 41.5 nM on BRD4 BD2 protein.
The corresponding values for `Cc1nnn2c1-c1ccc(C3=CCNCC3)cc1C(Nc1ccc(C#N)cc1)CC2` (centres unmarked) [LC128, 4-((1-methyl-9-(1,2,3,6-tetrahydropyridin-4-yl)-6,7-dihydro-5H-benzo[c][1,2,3]triazolo[1,5-a]azepin-7-yl)amino)benzonitrile 2,2,2-trifluoroacetate] are 467 nM and 56.2 nM.
The corresponding values for `CNC(=O)Cc1cccc(NC2CCn3nnc(C)c3-c3ccc(C4=CCNCC4)cc32)c1` (centres unmarked) [LC131] are 835 nM and 86.3 nM.
The corresponding values for `CNC(=O)Cc1ccccc1NC1CCn2nnc(C)c2-c2ccc(C3=CCNCC3)cc21` (centres unmarked) [LC132] are 724 nM and 55.9 nM.
Take `Cc1nnn2c1-c1ccc(C3=CCNCC3)cc1C(Nc1ccc(OCCO)cc1)CC2` (centres unmarked) [LC133, 2-(4-((1-methyl-9-(1,2,3,6-tetrahydropyridin-4-yl)-6,7-dihydro-5H-benzo[c][1,2,3]triazolo[1,5-a]azepin-7-yl)amino)phenoxy)ethan-1-ol 2,2,2-trifluoroacetate]: the Ki at BRD4 BD1 protein is 2190 nM; on BRD4 BD2 protein it was 207 nM.
The corresponding values for `Cc1nnn2c1-c1ccc(-c3cnn(C)c3)cc1C(Nc1ccccc1C#N)CC2` (centres unmarked) [LC136, 2-((1-methyl-9-(1-methyl-1H-pyrazol-4-yl)-6,7-dihydro-5H-benzo[c][1,2,3]triazolo[1,5-a]azepin-7-yl)amino)benzonitrile] are 49.7 nM and 8.83 nM.
In the case of `COc1ccccc1NC1CCn2nnc(C)c2-c2ccc(C3=CCNCC3)cc21` (centres unmarked) [LC158, N-(2-methoxyphenyl)-1-methyl-9-(1,2,3,6-tetrahydropyridin-4-yl)-6,7-dihydro-5H-benzo[c][1,2,3]triazolo[1,5-a]azepin-7-amine 2,2,2-trifluoroacetate], the Ki on BRD4 BD1 protein is 859 nM; on BRD4 BD2 protein, 41.6 nM.
For the compound `COc1cccc(NC2CCn3nnc(C)c3-c3ccc(C4=CCNCC4)cc32)c1` (centres unmarked) [LC159, N-(3-methoxyphenyl)-1-methyl-9-(1,2,3,6-tetrahydropyridin-4-yl)-6,7-dihydro-5H-benzo[c][1,2,3]triazolo[1,5-a]azepin-7-amine 2,2,2-trifluoroacetate], the Ki on BRD4 BD1 protein is 2130 nM; at BRD4 BD2 protein, 65.4 nM.
Taken in the same sequence, the figures for `COc1ccc(NC2CCn3nnc(C)c3-c3ccc(C4=CCNCC4)cc32)cc1` (centres unmarked) [LC160, N-(4-methoxyphenyl)-1-methyl-9-(1,2,3,6-tetrahydropyridin-4-yl)-6,7-dihydro-5H-benzo[c][1,2,3]triazolo[1,5-a]azepin-7-amine 2,2,2-trifluoroacetate] were 2270 nM and 114 nM.
The corresponding values for `Cc1nnn2c1-c1ccc(-c3cnn(C)c3)cc1C(N(C=O)c1cccc(Cl)c1)CC2` (centres unmarked) [LC174, N-(3-chlorophenyl)-N-(1-methyl-9-(1-methyl-1H-pyrazol-4-yl)-6,7-dihydro-5H-benzo[c][1,2,3]triazolo[1,5-a]azepin-7-yl)formamide] are 949 nM and 623 nM.
The corresponding values for `Cc1nnn2c1-c1ccc(-c3cnn(C)c3)cc1C(Nc1c(F)cccc1Cl)CC2` (centres unmarked) [LC185, N-(2-chloro-6-fluorophenyl)-1-methyl-9-(1-methyl-1H-pyrazol-4-yl)-6,7-dihydro-5H-benzo[c][1,2,3]triazolo[1,5-a]azepin-7-amine] are 162 nM and 16.4 nM.
`Cc1nnn2c1-c1ccc(-c3cnn(C)c3)cc1C(Nc1cccc(Cl)c1)CC2` (centres unmarked) [LC186, N-(3-chlorophenyl)-1-methyl-9-(1-methyl-1H-pyrazol-4-yl)-6,7-dihydro-5H-benzo[c][1,2,3]triazolo[1,5-a]azepin-7-amine]: the values for the Ki on BRD4 BD1 protein and on BRD4 BD2 protein were 31.3 nM and 6.98 nM, respectively.
Taken in the same sequence, the figures for `Cc1nnn2c1-c1ccc(C3=CCNCC3)cc1C(Nc1cccc(Cl)c1F)CC2` (centres unmarked) [LC190, N-(3-chloro-2-fluorophenyl)-1-methyl-9-(1,2,3,6-tetrahydropyridin-4-yl)-6,7-dihydro-5H-benzo[c][1,2,3]triazolo[1,5-a]azepin-7-amine 2,2,2-trifluoroacetate] were 592 nM and 60 nM.
